Experimental data taken from ChEMBL document CHEMBL1143512, “Antitubercular agents. Part 2: new thiolactomycin analogues active against Mycobacterium tuberculosis” (2005).
Values after ≈ are worked out from the molar mass of the structure shown.

These compounds were tested on Mycobacterium tuberculosis (assay: Minimum inhibitory concentration against Mycobacterium tuberculosis resistant clinical isolates; Range: 8->16 ug/ml).
Type: functional
Work on `NNC(=O)c1ccncc1` [ISONIAZID] yielded an MIC of over 16 µg/mL.

What follows are compounds tested on Mycobacterium tuberculosis (assay: Minimum inhibitory concentration against Mycobacterium tuberculosis resistant clinical isolates; Range: 1-4 ug/ml).
Type: functional
`COC(=O)CSCCCCCCCCOC1=C(C)C(=O)SC1C` (stereo not given) gave an MIC of 4 µg/mL (≈ 11.1 µM).

The compounds below were run on Mycobacterium tuberculosis (assay: Minimum inhibitory concentration against Mycobacterium tuberculosis resistant clinical isolates; Range:4-16 ug/ml).
Type: functional
Work on `CC1=C(OCCCCCCCCCCBr)C(C)SC1=O` (stereo not given) yielded an MIC of 16 µg/mL (≈ 44 µM).

The compounds below were run on Mycobacterium tuberculosis (assay: Minimum inhibitory concentration against Mycobacterium tuberculosis resistant clinical isolates).
Type: functional
`CC1=C(OCCCCN2CCOCC2)C(C)SC1=O` (stereo not given) showed an MIC of over 16 µg/mL.
In the case of `CC1=C(OCCCCCN2CCOCC2)C(C)SC1=O` (stereo not given), the MIC is reported as over 16 µg/mL.
In the case of `COC(=O)CSCCCOC1=C(C)C(=O)SC1C` (stereo not given), the MIC is reported as over 16 µg/mL.
`COC(=O)CSCCCCCOC1=C(C)C(=O)SC1C` (stereo not given) gave an MIC of over 16 µg/mL.
In the case of `CC1=C(OCCCCCCCCBr)C(C)SC1=O` (stereo not given), the MIC is reported as over 16 µg/mL.
`CC1=C(OCCCCCCBr)C(C)SC1=O` (stereo not given) gave an MIC of over 16 µg/mL.
`CC1=C(OCCCCCCCCN2CCOCC2)C(C)SC1=O` (stereo not given) gave an MIC of over 16 µg/mL.
`CC1=C(OCCCCCCCCCCN2CCN(C)CC2)C(C)SC1=O` (stereo not given) was tested, and the MIC was over 16 µg/mL.
`CC1=C(OCCCCN2CCN(C)CC2)C(C)SC1=O` (stereo not given) showed an MIC of over 16 µg/mL.
For `CC1=C(OCCCBr)C(C)SC1=O` (stereo not given), the MIC was over 16 µg/mL.
Compound `CC1=C(OCCCN2CCN(C)CC2)C(C)SC1=O` (stereo not given) has an MIC of over 16 µg/mL.
`CC1=C(OCCCCCBr)C(C)SC1=O` (stereo not given) was tested, and the MIC was over 16 µg/mL.
`COC(=O)CSCCCCOC1=C(C)C(=O)SC1C` (stereo not given) showed an MIC of over 16 µg/mL.
`COC(=O)CSCCCCCCOC1=C(C)C(=O)SC1C` (stereo not given) showed an MIC of over 16 µg/mL.
In the case of `CC1=C(OCCCCCN2CCN(C)CC2)C(C)SC1=O` (stereo not given), the MIC is reported as over 16 µg/mL.
`CC1=C(OCCCCBr)C(C)SC1=O` (stereo not given) gave an MIC of over 16 µg/mL.
Compound `CC1=C(OCCCCCCCCN2CCN(C)CC2)C(C)SC1=O` (stereo not given) has an MIC of over 16 µg/mL.
`CC1=C(OCCCCCCN2CCN(C)CC2)C(C)SC1=O` (stereo not given) showed an MIC of over 16 µg/mL.
In the case of `CC1=C(OCCCCCCN2CCOCC2)C(C)SC1=O` (stereo not given), the MIC is reported as over 16 µg/mL.
Work on `CC1=C(OCCCCCCCCCCN2CCOCC2)C(C)SC1=O` (stereo not given) yielded an MIC of over 16 µg/mL.
`COC(=O)CSCCCCCCCCCCOC1=C(C)C(=O)SC1C` (stereo not given) showed an MIC of over 16 µg/mL.
With `CC1=C(OCCCN2CCOCC2)C(C)SC1=O` (stereo not given) the MIC was over 16 µg/mL.
